Results on 13 compounds are retold here after patent US12258327B2, “5-membered heteroaryl-containing aminopyridine compounds as EGFR inhibitors” (YUHAN CORPORATION, priority 2021, dated 2025).

Like-named read-outs stand apart in the source and are kept apart here.

One test addresses EGFR del19/T790M/C797S (Homo sapiens, UniProt P00533, C797S/DEL746-750/T790M). Kind of test: Biochemical EGFR kinase assay (Lance Ultra TR-FRET), triple mutant del19/T790M/C797S. The method in brief: (§1)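 In this biochemical assay, phosphorylation after a one-hour room-temperature reaction was detected with europium-labelled anti-phosphopeptide antibody at 2 nM final concentration.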

For a further test, the target named is EGFR L858R/T790M/C797S (Homo sapiens, UniProt P00533, C797S/L858R/T790M). Kind of test: Biochemical EGFR kinase assay (Lance Ultra TR-FRET), triple mutant L858R/T790M/C797S. The method, boiled down: as §1
Another test addresses EGFR del19/C797S (Homo sapiens, UniProt P00533, C797S/DEL746-750). Nature of the test: Biochemical EGFR kinase assay (Lance Ultra TR-FRET), double mutant del19/C797S. The method, boiled down:
as §1

The target of another test is EGFR L858R/C797S (Homo sapiens, UniProt P00533, C797S/L858R). Nature of the test: Biochemical EGFR kinase assay (Lance Ultra TR-FRET), double mutant L858R/C797S. The method in brief: as §1
In general terms: TR-FRET usually uses a lanthanide donor and a delayed reading to cut background.

The next test deals with EGFR wildtype (WT) (Homo sapiens, UniProt P00533). Kind of test: Biochemical EGFR kinase assay (Lance Ultra TR-FRET), wildtype. The method, boiled down:
as §1

The mark [1] stands for this setting: Km ATP, read-out: IC50 del19/T790M/C797S (nM) Km ATP.
Setting [2] is: Km ATP, read-out: IC50 L858R/T790M/C797S (nM) Km ATP.
The mark [3] stands for this setting: Km ATP, read-out: IC50 del19/C797S (nM) Km ATP.
Where [4] appears, read: Km ATP, read-out: IC50 L858R/C797S (nM) Km ATP.
[5] abbreviates: Km ATP, read-out: IC50 WT (nM) Km ATP.
Setting [6] is: IC50 del19/T790M/C797S (nM) 100 μM ATP, 100 μM ATP.
Where [7] appears, read: IC50 L858R/T790M/C797S (nM) 100 μM ATP, 100 μM ATP.
The mark [8] stands for this setting: IC50 del19/C797S (nM) 100 μM ATP, 100 μM ATP.
[9] abbreviates: IC50 L858R/C797S (nM) 100 μM ATP, 100 μM ATP.
Where [10] appears, read: IC50 WT (nM) 100 μM ATP, 100 μM ATP.

EGFR wildtype (WT), sequence (P00533 25-1210): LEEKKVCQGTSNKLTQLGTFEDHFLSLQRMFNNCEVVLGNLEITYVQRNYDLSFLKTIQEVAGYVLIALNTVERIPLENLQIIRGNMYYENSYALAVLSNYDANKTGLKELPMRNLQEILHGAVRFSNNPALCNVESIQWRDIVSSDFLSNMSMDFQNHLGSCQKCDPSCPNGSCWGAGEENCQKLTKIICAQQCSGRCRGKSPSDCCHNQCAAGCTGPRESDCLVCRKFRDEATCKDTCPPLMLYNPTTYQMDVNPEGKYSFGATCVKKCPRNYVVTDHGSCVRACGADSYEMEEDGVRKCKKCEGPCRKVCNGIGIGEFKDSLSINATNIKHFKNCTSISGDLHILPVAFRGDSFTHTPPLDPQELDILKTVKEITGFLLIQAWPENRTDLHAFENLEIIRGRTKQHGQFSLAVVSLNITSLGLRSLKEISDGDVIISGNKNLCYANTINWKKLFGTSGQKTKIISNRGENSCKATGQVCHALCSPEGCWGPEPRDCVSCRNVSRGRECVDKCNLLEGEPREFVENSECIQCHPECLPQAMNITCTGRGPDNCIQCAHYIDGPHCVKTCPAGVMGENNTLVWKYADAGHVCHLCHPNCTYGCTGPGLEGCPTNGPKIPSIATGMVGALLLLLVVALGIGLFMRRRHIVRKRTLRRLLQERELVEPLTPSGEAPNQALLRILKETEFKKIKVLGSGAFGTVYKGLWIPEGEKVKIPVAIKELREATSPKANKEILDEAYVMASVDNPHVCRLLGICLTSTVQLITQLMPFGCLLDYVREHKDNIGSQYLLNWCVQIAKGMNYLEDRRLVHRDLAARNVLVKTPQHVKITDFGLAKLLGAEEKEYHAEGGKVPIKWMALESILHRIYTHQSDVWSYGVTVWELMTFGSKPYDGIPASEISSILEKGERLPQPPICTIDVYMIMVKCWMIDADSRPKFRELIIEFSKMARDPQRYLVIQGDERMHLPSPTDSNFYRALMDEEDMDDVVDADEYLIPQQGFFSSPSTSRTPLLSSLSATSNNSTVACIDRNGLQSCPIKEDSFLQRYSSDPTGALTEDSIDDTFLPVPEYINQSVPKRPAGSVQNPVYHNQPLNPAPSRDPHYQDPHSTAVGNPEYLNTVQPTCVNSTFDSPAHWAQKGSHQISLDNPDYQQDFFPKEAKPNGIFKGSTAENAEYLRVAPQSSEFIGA
EGFR L858R/T790M/C797S, sequence (P00533 25-1210 T790M/C797S/L858R): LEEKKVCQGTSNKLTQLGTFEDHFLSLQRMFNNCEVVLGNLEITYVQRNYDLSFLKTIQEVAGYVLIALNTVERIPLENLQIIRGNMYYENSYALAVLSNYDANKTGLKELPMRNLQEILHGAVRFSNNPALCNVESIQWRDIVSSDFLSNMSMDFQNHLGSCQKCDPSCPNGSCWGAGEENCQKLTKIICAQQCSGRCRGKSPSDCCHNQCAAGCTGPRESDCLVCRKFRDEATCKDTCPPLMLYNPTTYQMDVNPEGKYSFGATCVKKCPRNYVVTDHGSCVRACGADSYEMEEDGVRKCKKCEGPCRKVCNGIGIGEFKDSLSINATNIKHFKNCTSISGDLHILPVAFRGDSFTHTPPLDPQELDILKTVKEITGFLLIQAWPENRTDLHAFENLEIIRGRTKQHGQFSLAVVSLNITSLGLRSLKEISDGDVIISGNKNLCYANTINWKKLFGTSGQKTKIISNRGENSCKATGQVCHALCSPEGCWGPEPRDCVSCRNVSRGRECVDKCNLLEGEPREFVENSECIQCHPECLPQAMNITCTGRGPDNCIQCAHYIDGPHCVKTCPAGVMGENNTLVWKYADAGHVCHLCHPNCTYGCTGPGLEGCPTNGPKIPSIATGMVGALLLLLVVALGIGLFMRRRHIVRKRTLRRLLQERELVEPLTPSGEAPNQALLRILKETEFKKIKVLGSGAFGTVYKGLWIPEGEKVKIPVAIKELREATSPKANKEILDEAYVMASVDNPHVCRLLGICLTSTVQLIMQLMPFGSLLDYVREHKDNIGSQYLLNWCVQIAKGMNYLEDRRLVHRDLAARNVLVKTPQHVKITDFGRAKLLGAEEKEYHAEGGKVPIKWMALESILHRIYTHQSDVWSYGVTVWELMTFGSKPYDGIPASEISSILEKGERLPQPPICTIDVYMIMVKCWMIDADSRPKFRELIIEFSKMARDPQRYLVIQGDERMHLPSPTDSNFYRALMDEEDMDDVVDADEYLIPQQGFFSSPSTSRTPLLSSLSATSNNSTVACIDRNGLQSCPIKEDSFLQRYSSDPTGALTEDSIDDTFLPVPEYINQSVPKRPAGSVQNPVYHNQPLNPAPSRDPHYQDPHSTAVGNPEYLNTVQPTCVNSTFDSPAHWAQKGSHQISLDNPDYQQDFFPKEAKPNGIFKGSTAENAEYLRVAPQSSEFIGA
EGFR del19/T790M/C797S, sequence (P00533 with tags, fused parts or gaps DEL746-750/T790M/C797S): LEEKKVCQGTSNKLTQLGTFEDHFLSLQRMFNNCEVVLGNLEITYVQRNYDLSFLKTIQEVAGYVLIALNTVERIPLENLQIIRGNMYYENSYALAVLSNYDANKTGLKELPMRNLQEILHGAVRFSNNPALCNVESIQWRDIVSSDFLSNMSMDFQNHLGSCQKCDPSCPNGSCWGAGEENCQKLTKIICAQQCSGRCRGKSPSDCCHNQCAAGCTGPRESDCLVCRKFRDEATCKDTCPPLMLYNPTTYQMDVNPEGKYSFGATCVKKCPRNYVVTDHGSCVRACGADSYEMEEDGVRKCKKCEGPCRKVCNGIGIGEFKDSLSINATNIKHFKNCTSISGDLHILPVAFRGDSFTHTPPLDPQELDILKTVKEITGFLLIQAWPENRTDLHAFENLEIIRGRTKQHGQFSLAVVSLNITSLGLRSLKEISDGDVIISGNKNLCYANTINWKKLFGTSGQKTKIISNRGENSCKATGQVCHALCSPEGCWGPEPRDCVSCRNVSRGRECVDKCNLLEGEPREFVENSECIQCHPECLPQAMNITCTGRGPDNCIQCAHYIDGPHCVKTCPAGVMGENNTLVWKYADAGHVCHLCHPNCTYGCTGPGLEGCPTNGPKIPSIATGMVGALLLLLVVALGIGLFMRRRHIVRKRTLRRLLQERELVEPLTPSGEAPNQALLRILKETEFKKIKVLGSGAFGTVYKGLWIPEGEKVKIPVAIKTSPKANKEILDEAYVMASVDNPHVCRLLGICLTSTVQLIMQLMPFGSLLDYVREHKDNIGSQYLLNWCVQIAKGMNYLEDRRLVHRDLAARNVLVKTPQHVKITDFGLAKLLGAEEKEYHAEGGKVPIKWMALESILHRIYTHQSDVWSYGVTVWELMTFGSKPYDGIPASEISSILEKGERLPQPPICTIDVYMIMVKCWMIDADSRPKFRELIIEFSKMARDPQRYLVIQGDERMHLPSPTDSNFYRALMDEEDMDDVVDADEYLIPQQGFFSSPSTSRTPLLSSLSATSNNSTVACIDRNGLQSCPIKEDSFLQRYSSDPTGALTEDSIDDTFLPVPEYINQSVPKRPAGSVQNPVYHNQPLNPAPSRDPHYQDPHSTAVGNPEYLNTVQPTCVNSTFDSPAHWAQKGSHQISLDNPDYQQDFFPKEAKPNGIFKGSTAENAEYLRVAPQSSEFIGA
EGFR del19/C797S, sequence (P00533 with tags, fused parts or gaps DEL746-750/C797S): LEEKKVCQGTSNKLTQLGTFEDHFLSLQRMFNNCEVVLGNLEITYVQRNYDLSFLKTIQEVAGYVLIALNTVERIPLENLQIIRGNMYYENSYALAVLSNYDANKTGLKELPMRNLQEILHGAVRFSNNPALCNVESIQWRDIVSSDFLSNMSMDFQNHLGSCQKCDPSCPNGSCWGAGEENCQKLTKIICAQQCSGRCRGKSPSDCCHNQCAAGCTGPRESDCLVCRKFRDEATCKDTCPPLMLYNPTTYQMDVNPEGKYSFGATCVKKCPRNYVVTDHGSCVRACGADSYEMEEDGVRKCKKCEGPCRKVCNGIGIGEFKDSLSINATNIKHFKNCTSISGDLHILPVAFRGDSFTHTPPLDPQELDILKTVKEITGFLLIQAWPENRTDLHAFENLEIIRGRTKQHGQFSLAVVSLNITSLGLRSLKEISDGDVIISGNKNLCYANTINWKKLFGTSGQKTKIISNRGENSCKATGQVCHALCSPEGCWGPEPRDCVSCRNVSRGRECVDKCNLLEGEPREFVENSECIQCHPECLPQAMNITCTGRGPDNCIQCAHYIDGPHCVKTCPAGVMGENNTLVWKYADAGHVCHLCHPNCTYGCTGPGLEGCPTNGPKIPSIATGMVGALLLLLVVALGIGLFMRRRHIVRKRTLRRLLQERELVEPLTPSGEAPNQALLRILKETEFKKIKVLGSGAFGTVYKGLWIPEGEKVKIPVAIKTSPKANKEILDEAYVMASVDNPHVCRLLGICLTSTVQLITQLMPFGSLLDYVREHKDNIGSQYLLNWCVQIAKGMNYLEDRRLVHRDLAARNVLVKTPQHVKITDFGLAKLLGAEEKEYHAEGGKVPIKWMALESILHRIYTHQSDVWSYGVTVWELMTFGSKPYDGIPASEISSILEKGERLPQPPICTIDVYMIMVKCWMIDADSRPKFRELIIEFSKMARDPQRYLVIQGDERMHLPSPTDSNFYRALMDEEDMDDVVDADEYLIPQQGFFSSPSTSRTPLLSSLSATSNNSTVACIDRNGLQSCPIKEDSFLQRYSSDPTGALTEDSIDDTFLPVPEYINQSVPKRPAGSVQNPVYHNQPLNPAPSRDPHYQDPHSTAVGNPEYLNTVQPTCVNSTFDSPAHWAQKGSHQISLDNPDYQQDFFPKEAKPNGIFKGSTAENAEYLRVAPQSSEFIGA

For `Cn1nc(-c2cnc(Nc3ccnc(-c4cnn(CC(F)F)c4)n3)cc2NN2CCC(O)CC2)cc1C(F)(F)F` [Example 163, 1-((2-((2-(1-(2,2-Difluoroethyl)-1H-pyrazol-4-yl)pyrimidin-4-yl)amino)-5-(1-methyl-5-(trifluoromethyl)-1H-pyrazol-3-yl)pyridin-4-yl)amino)piperidin-4-ol], the IC50 on EGFR del19/T790M/C797S (setting [1]) stood at 1.8 nM; on EGFR L858R/T790M/C797S (setting [2]) it was 0.9 nM; on EGFR del19/C797S (setting [3]), 55.3 nM; at EGFR L858R/C797S (setting [4]), 744 nM; at EGFR wildtype (WT) (setting [5]), 737 nM.

`C[C@]1(F)CC[C@@H](Nc2cc(Nc3ccnc(-c4cnn(S(=O)(=O)C5CC5)c4)n3)ncc2-c2ccn(C(F)F)n2)CC1` [Example 220, N^2-(2-(1-(Cyclopropylsulfonyl)-1H-pyrazol-4-yl)pyrimidin-4-yl)-5-(1-(difluoromethyl)-1H-pyrazol-3-yl)-N^4-((1s,4s)-4-fluoro-4-methylcyclohexyl)pyridine-2,4-diamine]: the IC50 at EGFR del19/T790M/C797S (setting [1]) turned out to be 16.6 nM; on EGFR L858R/T790M/C797S (setting [2]) it was 11.4 nM; on EGFR del19/C797S (setting [3]), 539 nM; on EGFR L858R/C797S (setting [4]), 463 nM; at EGFR wildtype (WT) (setting [5]) it was 720 nM.

In the case of `CS(=O)(=O)N1CC=C(c2nccc(Nc3cc(N[C@H]4CC[C@@](C)(O)CC4)c(-c4ccn(C(F)F)n4)cn3)n2)CC1` [Example 156, (1s,4s)-4-((5-(1-(Difluoromethyl)-1H-pyrazol-3-yl)-2-((2-(1-(methylsulfonyl)-1,2,3,6-tetrahydropyridin-4-yl)pyrimidin-4-yl)amino)pyridin-4-yl)amino)-1-methylcyclohexan-1-ol], the IC50 at EGFR del19/T790M/C797S (setting [1]) was 35.2 nM; at EGFR L858R/T790M/C797S (setting [2]), 3.2 nM; at EGFR del19/C797S (setting [3]) it was above 10000 nM; at EGFR L858R/C797S (setting [4]) it was 339 nM; at EGFR wildtype (WT) (setting [5]), 986 nM.

As to `Cc1nn(-c2cnc(Nc3ccnc(-c4cnn(S(=O)(=O)C5CC5)c4)n3)cc2N[C@H]2CC[C@@](C)(O)CC2)cc1C(F)(F)F` [Example 182, (1s,4s)-4-((2-((2-(1-(Cyclopropylsulfonyl)-1H-pyrazol-4-yl)pyrimidin-4-yl)amino)-5-(3-methyl-4-(trifluoromethyl)-1H-pyrazol-1-yl)pyridin-4-yl)amino)-1-methylcyclohexan-1-ol], the IC50 at EGFR del19/T790M/C797S (setting [1]) was 0.8 nM; on EGFR L858R/T790M/C797S (setting [2]), 0.8 nM; on EGFR del19/C797S (setting [3]), 26.8 nM; on EGFR L858R/C797S (setting [4]), 116 nM; at EGFR wildtype (WT) (setting [5]) it was 781 nM.

In the case of `C[C@]1(O)CC[C@@H](Nc2cc(Nc3ccnc(-c4cnn(CC5CC5)c4)n3)ncc2-c2ccn(C(F)F)n2)CC1` [Example 141, (1s,4s)-4-((2-((2-(1-(Cyclopropylmethyl)-1H-pyrazol-4-yl)pyrimidin-4-yl)amino)-5-(1-(difluoromethyl)-1H-pyrazol-3-yl)pyridin-4-yl)amino)-1-methylcyclohexan-1-ol], the IC50 at EGFR del19/T790M/C797S (setting [6]) was 15.8 nM; on EGFR L858R/T790M/C797S (setting [7]) it was 3.2 nM; at EGFR del19/C797S (setting [8]), 111 nM; against EGFR L858R/C797S (setting [9]) it was 198 nM; on EGFR wildtype (WT) (setting [10]), above 10000 nM.

As for `Cc1nn(CC(F)(F)F)cc1-c1nccc(Nc2cc(N[C@H]3CC[C@@](C)(O)CC3)c(-c3ccn(C(F)F)n3)nn2)n1` [Example 375, (1s,4s)-4-((3-(1-(Difluoromethyl)-1H-pyrazol-3-yl)-6-((2-(3-methyl-1-(2,2,2-trifluoroethyl)-1H-pyrazol-4-yl)pyrimidin-4-yl)amino)pyridazin-4-yl)amino)-1-methylcyclohexan-1-ol], the IC50 on EGFR del19/T790M/C797S (Km ATP, read-out: IC50 del19/T790M/C797S, Km ATP) stood at 16.4 nM; on EGFR L858R/T790M/C797S (Km ATP, read-out: IC50 L858R/T790M/C797S, Km ATP), 11.1 nM; at EGFR del19/C797S (Km ATP, read-out: IC50 del19/C797S, Km ATP), 1150 nM; at EGFR L858R/C797S (Km ATP, read-out: IC50 L858R/C797S, Km ATP) it was 51.4 nM; at EGFR wildtype (WT) (Km ATP, read-out: IC50 WT, Km ATP) it was 2290 nM.

For the compound `O=S(=O)(C1CC1)n1cc(-c2nccc(Nc3cc(NC4CC(O)C4)c(-c4ccn(C(F)F)n4)cn3)n2)cn1` (stereo not drawn) [Example 40, 3-((2-((2-(1-(Cyclopropylsulfonyl)-1H-pyrazol-4-yl)pyrimidin-4-yl)amino)-5-(1-(difluoromethyl)-1H-pyrazol-3-yl)pyridin-4-yl)amino)cyclobutan-1-ol], the IC50 on EGFR del19/T790M/C797S (setting [6]) amounted to 0.5 nM; at EGFR del19/T790M/C797S (setting [1]) it was 0.5 nM; on EGFR L858R/T790M/C797S (setting [7]), 2 nM; at EGFR L858R/T790M/C797S (setting [2]) it was 0.3 nM; against EGFR del19/C797S (setting [8]) it was 7.6 nM; at EGFR del19/C797S (setting [3]), 2.3 nM. For the same compound, the IC50 was 174 nM on EGFR L858R/C797S (setting [9]), 4.5 nM on EGFR L858R/C797S (setting [4]), above 10000 nM on EGFR wildtype (WT) (setting [10]) and 36.3 nM at EGFR wildtype (WT) (setting [5]).

For `Cc1ccn(-c2cnc(Nc3ccnc(-c4cnn(S(=O)(=O)C5CC5)c4)n3)cc2N[C@H]2CC[C@@](C)(O)CC2)n1` [Example 168, (1s,4s)-4-((2-((2-(1-(Cyclopropylsulfonyl)-1H-pyrazol-4-yl)pyrimidin-4-yl)amino)-5-(3-methyl-1H-pyrazol-1-yl)pyridin-4-yl)amino)-1-methylcyclohexan-1-ol], the IC50 is 0.2 nM on EGFR del19/T790M/C797S (setting [1]); 0.1 nM at EGFR L858R/T790M/C797S (setting [2]); 6.5 nM on EGFR del19/C797S (setting [3]); 3 nM on EGFR L858R/C797S (setting [4]); 26.9 nM at EGFR wildtype (WT) (setting [5]).

On to `C[C@]1(O)CC[C@@H](Nc2cc(Nc3ccnc(-c4cnn(S(=O)(=O)N5CCCC5)c4)n3)ncc2-c2ccn(C(F)F)n2)CC1` [Example 323, (1s,4s)-4-((5-(1-(Difluoromethyl)-1H-pyrazol-3-yl)-2-((2-(1-(pyrrolidin-1-ylsulfonyl)-1H-pyrazol-4-yl)pyrimidin-4-yl)amino)pyridin-4-yl)amino)-1-methylcyclohexan-1-ol], for which the IC50 at EGFR del19/T790M/C797S (setting [1]) stood at 10.4 nM; at EGFR L858R/T790M/C797S (setting [2]), 4.6 nM; at EGFR del19/C797S (setting [3]), 1060 nM; on EGFR L858R/C797S (setting [4]), 143 nM; on EGFR wildtype (WT) (setting [5]), 466 nM.

As for `O=S(=O)(C1CC1)n1cc(-c2nccc(Nc3cc(NC4CCC(F)(F)CC4)c(-c4ccn(C(F)F)n4)cn3)n2)cn1` [Example 215, N^2-(2-(1-(Cyclopropylsulfonyl)-1H-pyrazol-4-yl)pyrimidin-4-yl)-N^4-(4,4-difluorocyclohexyl)-5-(1-(difluoromethyl)-1H-pyrazol-3-yl)pyridine-2,4-diamine], the IC50 is 11.9 nM at EGFR del19/T790M/C797S (setting [1]); 8.6 nM at EGFR L858R/T790M/C797S (setting [2]); 70.2 nM at EGFR del19/C797S (setting [3]); 32.5 nM on EGFR L858R/C797S (setting [4]); 434 nM on EGFR wildtype (WT) (setting [5]).

Consider `Cn1nc(-c2cnc(Nc3ccnc(-c4cnn(S(=O)(=O)C5CC5)c4)n3)cc2N[C@H]2CC[C@@H](CCO)CC2)cc1C(F)(F)F` [Example 262, 2-((1s,4s)-4-((2-((2-(1-(Cyclopropylsulfonyl)-1H-pyrazol-4-yl)pyrimidin-4-yl)amino)-5-(1-methyl-5-(trifluoromethyl)-1H-pyrazol-3-yl)pyridin-4-yl)amino)cyclohexyl)ethan-1-ol], for which the IC50 against EGFR del19/T790M/C797S (setting [6]) was determined as 6.6 nM; on EGFR del19/T790M/C797S (setting [1]), 0.1 nM; on EGFR L858R/T790M/C797S (setting [7]), 7.3 nM; at EGFR L858R/T790M/C797S (setting [2]) it was 2.1 nM; against EGFR del19/C797S (setting [8]), 33.4 nM; at EGFR del19/C797S (setting [3]), 4.5 nM. The IC50 against EGFR L858R/C797S (setting [9]) turned out to be 5.3 nM; on EGFR L858R/C797S (setting [4]), 5.7 nM; against EGFR wildtype (WT) (setting [10]), 1880 nM; on EGFR wildtype (WT) (setting [5]), 8.4 nM.

Turning to `Cn1nc(-c2cnc(Nc3ccnc(-c4cnn(S(=O)(=O)C5CC5)c4)n3)cc2N[C@H]2CC[C@@H](CO)CC2)cc1C(F)(F)F` [Example 253, ((1s,4s)-4-((2-((2-(1-(Cyclopropylsulfonyl)-1H-pyrazol-4-yl)pyrimidin-4-yl)amino)-5-(1-methyl-5-(trifluoromethyl)-1H-pyrazol-3-yl)pyridin-4-yl)amino)cyclohexyl)methanol], the IC50 at EGFR del19/T790M/C797S (setting [6]) amounted to 1.1 nM; against EGFR L858R/T790M/C797S (setting [7]) it was 2.1 nM; on EGFR L858R/T790M/C797S (setting [2]), 0.9 nM; against EGFR del19/C797S (setting [8]) it was 3.2 nM; on EGFR del19/C797S (setting [3]), 2.3 nM; against EGFR L858R/C797S (setting [9]), 10.6 nM. For the same compound, the IC50 at EGFR L858R/C797S (setting [4]) was determined as 7 nM; at EGFR wildtype (WT) (setting [10]), 618 nM; at EGFR wildtype (WT) (setting [5]) it was 3.4 nM.

As to `O=S(=O)(C1CC1)n1cc(-c2nccc(Nc3cc(NC4CCCCC4O)c(-c4ccn(C(F)F)n4)cn3)n2)cn1` (stereo not drawn) [Example 28, 2-((2-((2-(1-(Cyclopropylsulfonyl)-1H-pyrazol-4-yl)pyrimidin-4-yl)amino)-5-(1-(difluoromethyl)-1H-pyrazol-3-yl)pyridin-4-yl)amino)cyclohexan-1-ol], the IC50 is 1.1 nM against EGFR del19/T790M/C797S (setting [6]); 0.9 nM on EGFR del19/T790M/C797S (setting [1]); 5.5 nM against EGFR L858R/T790M/C797S (setting [7]); 0.8 nM at EGFR L858R/T790M/C797S (setting [2]); 62.7 nM against EGFR del19/C797S (setting [8]); 95.7 nM on EGFR del19/C797S (setting [3]). Also, the IC50 is 598 nM against EGFR L858R/C797S (setting [9]), 21.8 nM on EGFR L858R/C797S (setting [4]), above 10000 nM on EGFR wildtype (WT) (setting [10]) and 241 nM on EGFR wildtype (WT) (setting [5]).
